Key:
[1] = target: T1, Peroxisome proliferator-activated receptor gamma (Homo sapiens, UniProt P37231); assay: Ligand binding affinity was determined by displacement of a tritiated tracer by the unlabeled compound to a GST-PPAR fusion protein for Peroxisome proliferator activated receptor gamma containing residues
T1 sequence (P37231 whole entry): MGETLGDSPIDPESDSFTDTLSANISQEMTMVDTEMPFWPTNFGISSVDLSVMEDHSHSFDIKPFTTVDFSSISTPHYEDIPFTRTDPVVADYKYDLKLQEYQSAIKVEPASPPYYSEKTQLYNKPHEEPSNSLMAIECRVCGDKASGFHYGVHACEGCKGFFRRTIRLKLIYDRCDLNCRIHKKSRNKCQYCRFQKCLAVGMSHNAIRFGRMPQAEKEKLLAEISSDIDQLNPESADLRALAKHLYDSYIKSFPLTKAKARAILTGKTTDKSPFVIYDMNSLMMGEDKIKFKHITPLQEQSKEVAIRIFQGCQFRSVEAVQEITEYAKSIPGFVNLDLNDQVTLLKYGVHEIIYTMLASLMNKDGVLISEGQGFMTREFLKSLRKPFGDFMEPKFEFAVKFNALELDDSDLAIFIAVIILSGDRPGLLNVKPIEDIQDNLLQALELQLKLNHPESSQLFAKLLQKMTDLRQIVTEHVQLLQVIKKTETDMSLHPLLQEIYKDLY

[2] = target: T2, Peroxisome proliferator-activated receptor alpha (Homo sapiens, UniProt Q07869); assay: Transactivation potency was measured by luciferase activity in Caco- 2/TC7 cells transiently co-transfected for the fusion-protein Gal4-PPAR alpha; format: functional, cell-based
T2 sequence (Q07869 whole entry): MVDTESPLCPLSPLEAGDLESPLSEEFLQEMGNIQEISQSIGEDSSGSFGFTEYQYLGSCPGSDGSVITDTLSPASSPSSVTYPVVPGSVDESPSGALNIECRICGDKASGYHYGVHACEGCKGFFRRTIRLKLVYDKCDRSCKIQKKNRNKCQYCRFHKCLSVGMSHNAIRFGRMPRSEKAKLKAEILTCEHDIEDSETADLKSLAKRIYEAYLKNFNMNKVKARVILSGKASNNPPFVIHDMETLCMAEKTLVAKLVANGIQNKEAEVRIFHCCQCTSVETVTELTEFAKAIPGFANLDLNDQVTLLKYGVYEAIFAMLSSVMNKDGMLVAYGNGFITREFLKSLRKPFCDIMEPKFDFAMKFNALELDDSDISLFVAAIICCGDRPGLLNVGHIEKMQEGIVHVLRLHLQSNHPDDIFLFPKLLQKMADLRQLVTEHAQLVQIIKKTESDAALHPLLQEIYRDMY

[3] = target: T2, Peroxisome proliferator-activated receptor alpha; assay: Ligand binding affinity was determined by displacement of a tritiated tracer by the unlabeled compound to a GST-PPAR fusion protein for Peroxisome proliferator activated receptor alpha containing residues
[4] = target: T1, Peroxisome proliferator-activated receptor gamma; assay: Transactivation potency was measured by luciferase activity in Caco- 2/TC7 cells transiently co-transfected for the fusion-protein Gal4-PPAR gamma; format: functional, cell-based

SMILES	Ki [1] [µM]	EC50 [2] [µM]	Ki [3] [µM]	EC50 [4] [µM]
O=C(Nc1ccc(-c2ccsc2)cc1C(=O)O)c1ccc(Cl)cc1Cl	0.9	12	28	0.7
O=C(Nc1ccc(OCCc2ccsc2)cc1C(=O)O)c1ccc(Cl)cc1Cl	0.6	3.8	20	0.8
O=C(Nc1ccc(Oc2cncc(Cl)n2)cc1C(=O)O)c1ccc(Cl)cc1Cl	0.16	> 100	21	0.45
CSCCOc1ccc(NC(=O)c2ccc(Cl)cc2Cl)c(C(=O)O)c1	1.6	2.5	19	0.6
O=C(Nc1ccc(OCCc2ccccn2)cc1C(=O)O)c1ccc(Cl)cc1Cl	1.5	–	> 100	3.2
CCOc1cccc(-c2ccc(NC(=O)c3ccc(Cl)cc3Cl)c(C(=O)O)c2)c1	1.2	> 100	> 100	0.3
O=C(Nc1ccc(Oc2ncccn2)cc1C(=O)O)c1ccc(Cl)cc1Cl	0.1	> 100	> 100	1.3
O=C(Nc1ccc(-c2cccc3cccnc23)cc1C(=O)O)c1ccc(Cl)cc1Cl	0.7	> 100	> 100	0.3
O=C(Nc1ccc(Oc2ccc([N+](=O)[O-])cn2)cc1C(=O)O)c1ccc(Cl)cc1Cl	0.18	> 100	> 100	0.4
O=C(Nc1ccc(OCCc2cccs2)cc1C(=O)O)c1ccc(Cl)cc1Cl	1	> 100	> 100	0.7
Cc1ccc(NC(=O)c2ccc(Cl)cc2Cl)c(C(=O)O)c1	2.2	9.5	30	1.6
O=C(Nc1ccc(Oc2ncccc2[N+](=O)[O-])cc1C(=O)O)c1ccc(Cl)cc1Cl	0.17	> 100	> 100	0.4
CCOc1ccc(COc2ccc(NC(=O)c3ccc(Cl)cc3Cl)c(C(=O)O)c2)cc1	3.6	> 100	> 100	0.7
O=C(O)c1cccc(-c2ccc(NC(=O)c3ccc(Cl)cc3Cl)c(C(=O)O)c2)c1	1.4	> 100	67	> 100
O=C(Nc1ccc(OCc2cccs2)cc1C(=O)O)c1ccc(Cl)cc1Cl	0.4	5	25	0.3
O=C(Nc1ccc(-c2ccco2)cc1C(=O)O)c1ccc(Cl)cc1Cl	0.5	10	22	1

From ChEMBL document CHEMBL1135007, “Synthesis and pharmacological evaluation of a new class of peroxisome proliferator-activated receptor modulators” (Bioorg Med Chem Lett, 2002)
